Laboratory results as given in patent US7214519B2, “Screening method for identifying heme independent modulators of soluble guanylyl cyclase (sGC) activity using αβCys105 mutant sGC” (Board of Regents of the University of Texas System, priority 2003, dated 2007).
Residue numbers refer to the chain shown, from its start.

Key:
wild type sGC = molecular target: T1, wild type sGC (Homo sapiens, UniProt Q02108+Q02153); assay: Assay of sGC activity ([32P]cGMP formation from GTP), purified wild type enzyme; type: biochemical
T1 construct: made in house; host or cells: Sf9 cells (baculovirus)
T1 sequence (Q02153 1-619): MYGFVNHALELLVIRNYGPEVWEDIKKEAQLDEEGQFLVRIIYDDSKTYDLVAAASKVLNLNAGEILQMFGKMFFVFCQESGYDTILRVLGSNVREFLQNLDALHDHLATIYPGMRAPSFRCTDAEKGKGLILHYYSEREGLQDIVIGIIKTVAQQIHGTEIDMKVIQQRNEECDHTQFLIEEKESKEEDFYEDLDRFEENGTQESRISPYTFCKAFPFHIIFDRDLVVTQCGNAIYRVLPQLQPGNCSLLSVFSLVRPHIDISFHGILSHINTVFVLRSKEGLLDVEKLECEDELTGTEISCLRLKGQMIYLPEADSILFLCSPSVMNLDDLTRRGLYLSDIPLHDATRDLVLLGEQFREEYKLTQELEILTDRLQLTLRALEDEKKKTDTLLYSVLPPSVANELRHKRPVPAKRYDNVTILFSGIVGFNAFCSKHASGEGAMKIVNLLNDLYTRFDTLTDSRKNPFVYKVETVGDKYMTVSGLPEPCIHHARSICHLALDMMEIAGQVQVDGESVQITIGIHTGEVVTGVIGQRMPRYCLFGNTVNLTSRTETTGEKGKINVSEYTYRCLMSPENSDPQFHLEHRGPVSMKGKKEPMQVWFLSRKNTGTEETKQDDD
T1 sequence (Q02108 1-690): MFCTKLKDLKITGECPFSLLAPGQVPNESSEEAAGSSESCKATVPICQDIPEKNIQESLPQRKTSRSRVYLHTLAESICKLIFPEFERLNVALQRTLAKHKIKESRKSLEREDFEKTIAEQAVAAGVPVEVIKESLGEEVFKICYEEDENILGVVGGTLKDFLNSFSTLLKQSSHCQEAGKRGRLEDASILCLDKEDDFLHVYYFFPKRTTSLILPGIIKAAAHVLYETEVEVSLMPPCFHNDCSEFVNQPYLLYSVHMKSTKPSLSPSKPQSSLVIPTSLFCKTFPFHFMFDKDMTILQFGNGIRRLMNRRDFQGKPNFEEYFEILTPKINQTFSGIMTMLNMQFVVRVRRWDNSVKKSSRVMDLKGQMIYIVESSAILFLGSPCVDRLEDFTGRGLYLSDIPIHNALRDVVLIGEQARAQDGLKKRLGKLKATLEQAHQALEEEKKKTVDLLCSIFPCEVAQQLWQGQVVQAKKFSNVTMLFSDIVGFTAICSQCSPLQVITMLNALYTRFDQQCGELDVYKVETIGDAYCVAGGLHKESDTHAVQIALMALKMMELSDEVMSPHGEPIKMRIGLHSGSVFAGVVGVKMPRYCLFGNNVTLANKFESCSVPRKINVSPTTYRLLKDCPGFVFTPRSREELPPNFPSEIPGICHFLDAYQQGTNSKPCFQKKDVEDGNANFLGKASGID
Description: (§1) sGC Expression and Purification. […] Purification of sGC was performed as described earlier (26), the disclosure of which is hereby incorporated herein by reference, with the following modifications. Cells were harvested 72 h post infection, resuspended in loading buffer (25 mM triethanolamine, pH 7.5. 10 glycerol, 4 mM MgCl2 and 1 mM phenylmethylsulfonyl fluoride, and 5 μg/ml each of pepstatin A, leupeptin, aprotinin, and chymostatin,) and lysed by sonication. The lysate was subjected to 100,000×g centrifugation for 1 h. The high-speed supernate was loaded on a 60 ml DEAE-Sepharose (Amersham Pharmacia Biotech) column and washed with 60 ml of loading buffer without protease inhibitors. The proteins were eluted with loading buffer containing 250 mM NaCl and the eluate was directly loaded on a 30 ml His-Bind resin (Novagen) column. The column was washed with 60 ml of loading buffer followed by 60 ml of loading buffer with 45 mM imidazole. The enzyme was eluted with 175 mM imidazole and 2 ml fractions were collected. […] The enzyme at this stage was approximately 90–95% pure. To remove imidazole, sGC-containing fractions were diluted 3 fold with 25 mM triethanolamine pH 7.5, loaded on a 2 ml Hi-Trap DEAE-Sepharose column (Amersham Pharmacia Biotech), washed with 10 ml of loading buffer and eluted with 25 mM triethanolamine pH 7.5, 250 mM NaCl, 10 glycerol, 4 mM MgCl2, 0.5 mM EDTA, 0.5 mM EGTA. The enzyme obtained at this stage (95% or greater purity) was used for experiments.
(§2) Assay of sGC Activity. Enzyme activity was assayed by formation of [^32P] cGMP from α[^32P]GTP at 37° C. in a final volume of 100 μl. Incubation medium contained 50 mM triethanolamine-HCl buffer (pH 7.4), 1 mM 3-isobutyl-1-methylxanthine (IBMX), 1 mg/ml BSA. 1 mM cGMP, 3 mM MgCl2, 0.05 mg/ml creatine phosphokinase, 5 mM creatine phosphate, 0.1 mM EGTA. 200 μM GTP (about 10.000 cpm/pmol). The reaction was started by addition of the substrate (GTP) with or without activators. 1 mM DTT, GSH or cysteine were added to the incubation medium before the addition of GTP. Thiol concentration varied in some experiments as indicated. Samples containing 0.2 μg sGC were incubated for 10 or 15 min and the reaction was stopped by addition of 500 μl 150 mM zinc acetate and 500 μl 180 mM sodium carbonate. The pellet of zinc carbonate containing most of the unreacted GTP was removed by centrifugation and the supernatant fractions were loaded onto columns filled with 1 g of neutral alumina. Columns were then eluted with 10 ml 0.1 M Tris-HCl buffer (pH 7.5) and Cherenkov radiation in flow through plus eluate was counted in a LKB liquid scintillation spectrometer. Samples incubated in the absence of sGC were used as a negative control. The concentration of dimethylsulfoxide (DMSO) used as a vehicle for YC-1 was not higher than 0.1 and had no effect on sGC activity as determined previously.

αβ^Cys105 mutant sGC = molecular target: T2, αβ^Cys105 mutant sGC (Homo sapiens, UniProt Q02108+Q02153, H105C); assay: Assay of sGC activity ([32P]cGMP formation from GTP), purified αβ^Cys105 mutant enzyme; type: biochemical
T2 construct: made in house; host or cells: Sf9 cells (baculovirus)
T2 sequence (Q02153 1-619 H105C): T1 sequence (Q02153 1-619) with H105C
T2 sequence (Q02108 1-690): T1 sequence (Q02108 1-690)
Description: as §1, §2

[1] = 2 μM BAY-41-2272, data not shown

Nc1nc(-c2nn(Cc3ccccc3F)c3ncccc23)ncc1C1CC1 [BAY-41-2272, 5-cyclopropyl-2-[1-(2-fluoro-benzyl)-1H-pyrazolo[3,4-b]pyridin-3-yl]-pyrimidin-4-ylamine, reference compound]
effect compared with 100 μM YC-1 (wild type sGC; [1]): Identical effects | effect compared with 100 μM YC-1 (αβ^Cys105 mutant sGC; [1]): Identical effects

O[C@@H](CS)[C@@H](O)CS [DTT, reference compound]
change of activity without DTT (wild type sGC; 1 mM DTT vs no thiols): did not change significantly | concentration at which inhibitory effect is prominent (αβ^Cys105 mutant sGC; concentration-response, FIG. 1B): higher than 1 mM | fold decrease in enzymatic activity (αβ^Cys105 mutant sGC; millimolar concentrations of DTT): 5–7 fold

N[C@@H](CCC(=O)N[C@@H](CS)C(=O)NCC(=O)O)C(=O)O [GSH, glutathione, reference compound]
specific activity in the presence of GSH (αβ^Cys105 mutant sGC; GSH as reducing agent, no DTT): up to 2 μmol/min/mg | effect of GSH on activity (αβ^Cys105 mutant sGC; GSH concentration above 1 mM): slight stimulatory effect

C=CC1=C(C)c2cc3[nH]c(cc4nc(cc5[nH]c(cc1n2)c(C)c5CCC(=O)O)C(CCC(=O)O)=C4C)c(C)c3C=C [PPIX, protoporphyrin IX, reference compound]
stimulation of basal activity by PPIX (αβ^Cys105 mutant sGC; 1 μM PPIX, absence of DTT): 80

OCc1ccc(-c2nn(Cc3ccccc3)c3ccccc23)o1 [YC-1, 3-(5′-Hydroxymethyl-2′furyl)-1-benzyl-indazole, reference compound]
fold stimulation by YC-1 (wild type sGC; 100 μM YC-1): 11 fold | specific activity with YC-1 (wild type sGC; 100 μM YC-1): 0.15 µmol/min/mg | increase of activity with YC-1 activation (αβ^Cys105 mutant sGC; 100 μM YC-1, DTT-free conditions): 30 | extent of activation by YC-1 after heme reconstitution (αβ^Cys105 mutant sGC; 100 μM YC-1, DTT-treated heme-reconstituted enzyme): did not change the extent of activation | fold activation by YC-1 (αβ^Cys105 mutant sGC; 100 μM YC-1, in the presence of DTT): up to 3 fold

CCCCC/C=C\C/C=C\C/C=C\C/C=C\CCCC(=O)O [arachidonic acid, reference compound]
maximum fold activation by arachidonic acid (wild type sGC; not affected by DTT, data not shown): 3 fold | activity with arachidonic acid (αβ^Cys105 mutant sGC; 1 mM arachidonic acid, in the presence of DTT): 0.5 µmol/min/mg | fold stimulation by arachidonic acid (αβ^Cys105 mutant sGC; 1 mM, in the presence of DTT): 3.5 fold | stimulation by arachidonic acid (αβ^Cys105 mutant sGC; absence of DTT): only modestly stimulated

NCCSSCCN [cystamine, reference compound]
effect of cystamine on activity in the presence of DTT (wild type sGC; 1 mM cystamine, 1 mM DTT): reversed | effect of cystamine on activity (wild type sGC; 1 mM cystamine, no DTT): inhibited | sensitivity to cystamine in the presence of DTT (αβ^Cys105 mutant sGC; 1 mM cystamine, 1 mM DTT): less sensitive
